Experimental data from patent US8252831B2, “Imidazole-2-benzamide compounds useful for the treatment of osteoarthritis” (Eli Lilly and Company, priority 2010, dated 2012).

How the values were obtained:
[1] = tested on: Human whole blood; assay: Human Whole Blood Assay (LPS induced PGE2 production); assay type: cell-based; settings: LPS 100 μg/mL, 20-24 hours, PGE2 by LC/MS/MS, read-out: PGE2 Inhibition. IC50 (μM, mean ± std. dev.)
Procedure: Blood is collected from normal volunteer donors into sodium heparin vacutainer tubes. Donors are selected, in part, on their confirmation that they have not taken NSAIDs, aspirin, Celebrex, or glucocorticoids within two weeks of the donation. All tubes/donor are pooled into 250 mL Corning conical centrifuge tubes and 436.5 μL/well is distributed into deep well polypropylene plates. Compounds are diluted in DMSO to 100× final and 4.5 μL/well in duplicate or triplicate is added to give 7 point curves. […] One hundred microliters is quantitatively transferred to Costar cluster tubes blocks and 400 μL/well of the methanol stop reagent and internal standards, d-4PGE2, d-4PGF2α, and d-4TX2β are added. […]
Solid phase extraction is performed using Waters HLB 30 mg/bed 96 well plates on a vacuum manifold: 1) the matrix is washed with methanol (1 mL), followed by 0.1% formic acid in water (1 mL); 2) 400 μL sample is applied along with 0.1% formic acid in water (900 μL) and allowed to bind for 5 minutes; 3) the matrix is washed with 0.1% formic acid in water (600 μL), followed by 80/20 water/methanol (600 μL); 4) the products are eluted with 2-500 μL volumes of ethyl acetate; 5) the samples are dried under nitrogen and reconstituted in 75/25 water/acetonitrile with 0.1% formic acid (50 μL). The products were analyzed by LC/MS/MS. […]

[2] = tested on: Human epithelial lung carcinoma cell line A549; assay: Cell Based Assay for Measuring Eicosanoid Selectivity (rhIL-1β induced PGE2 in A549 cells); settings: rhIL-1β 0.1-0.2 ng/mL, approximately 18 hours, PGE2 by EIA, read-out: PGE2 Inhibition. IC50 (μM, mean ± std. dev.)
Procedure: Human epithelial lung carcinoma cell line A549 is obtained from ATCC (CCL-185) and is maintained in Kaighn's F12 (“F12K”)+10% fetal bovine serum, (FBS) (plating medium), and 5% CO2. The cells are passaged at 1:3 twice per week.
For assay, cells are released from flasks by washing once with phosphate buffered saline (PBS), then once with Trypsin/EDTA. After 3-5 minutes at 37° C., the cells are suspended in 10 mL of plating medium and centrifuged at 2000 rpm, 25° C., for 5 minutes. The supernatant is aspirated and the cell pellet is resuspended in 10 mL F12K. Cell number is determined by counting an aliquot of cells which has been diluted in PBS and Trypan blue on a hemocytometer. Cells are plated at 40,000/well in 96 well Falcon plates 24 hours prior to treatment. Compounds are diluted in DMSO to 100× of the final concentration in Screen Mates tubes. The medium is removed from the cells and fresh medium (90 μL/well) is added to the cells. […] The plates are incubated at room temperature for 30-45 minutes and then read on a plate reader at A490 to determine viability. […]
The conditioned medium is assayed for levels of PGE2 and PGI2 by specific enzyme immune-assays (EIAs), according to the manufacturer's protocols (Cayman). […] After approximately 45 minutes at room temperature on an orbital shaker at 100 rpm, the plates are read at A412 on a plate reader. […]

CC(C)(C)C(=O)NCc1ccc(Br)c(C(=O)Nc2ncc[nH]2)c1 [Example 5, 2-Bromo-5-[(2,2-dimethylpropanoylamino)methyl]-N-(1H-imidazol-2-yl)benzamide]
IC50 [1]: 0.607 ± 0.502 µM | IC50 [2]: 0.19 µM
